Results published in patent publication US11103549B2, “Use of histone methyltransferase inhibitors and histone deacetylase inhibitors for therapy of Phelan-McDermid Syndrome” (Asddr, LLC, priority 2016, dated 2021).

Columns and labels:
Shank3e4-9 mice = conditions: before and after romidepsin treatment
class I HDAC = conditions: Klimek et al., 2008; cited from earlier work
acetylated H3 = conditions: Shank3+/ΔC mice, romidepsin 0.25 mg/kg, i.p., once daily for 3 days, cortical slices
BTBR T+tf/J mice = conditions: before and after romidepsin treatment
Shank3+/ΔC mice [1] = assay: Three-chamber social interaction assay in Shank3+/ΔC mice; type: in vivo; conditions: for improvement on social preference: i.p. once daily for 3 days
[2] = Liu et al., 2013; cited from earlier work
WT mice = assay: Three-chamber social interaction assay in wild-type mice; type: in vivo; conditions: UNC0642 1 mg/kg, i.p., once daily for 3 days, saline control 62.0%±3.1%
Source text: To test the social preference behavior, juvenile male Shank3+/ΔC mice and age-matched wild-type (WT) mice were subject to the three-chamber social interaction assay, as previously described (Duffney et al., 2015). Briefly, the test is composed of three phases with various stimuli placed in each of two side chambers. Phase 1 contains two identical nonsocial stimuli (NS1 & NS1), phase 2 contains a nonsocial stimulus (NS1) and a social stimulus (Soc1), and phase 3 contains a known social stimulus (Soc1) and a novel social stimulus (Soc2). The preference index for one stimulus over the other stimulus in each phase was compared.

EHMT1/2 = conditions: Liu et al., 2013; cited from earlier work
Shank3+/ΔC mice [3] = conditions: 5 mg/kg, i.p. 5 days, Kim et al., 2017; cited from earlier work
Shank3+/ΔC mice [4] = conditions: mouse, in vivo
EHMT2/EHMT1 = conditions: cited from earlier work

Romidepsin
rescue of autism-like social deficits (social preference index) (Shank3e4-9 mice): rescues autism-like social deficits in multiple mouse models of autism | potency as class I-specific HDAC inhibitor (class I HDAC): nanomolar potency | level of acetylated H3 (acetylated H3): significantly elevated the level of acetylated H3 | rescue of autism-like social deficits (social preference index) (BTBR T+tf/J mice): rescues autism-like social deficits | duration of effect on social preference post-injection (Shank3+/ΔC mice [1]; mouse, in vivo): 21 days | preference for social stimulus over non-social object (Shank3+/ΔC mice [1]; mouse, in vivo): significantly elevated the preference for the social stimulus

COc1cc2c(NC3CCN(C(C)C)CC3)nc(N3CCC(F)(F)CC3)nc2cc1OCCCN1CCCC1 [UNC0642, 2-(4,4-Difluoro-1-piperidinyl)-6-methoxy-N-[1-(1-methylethyl)-4-piperidinyl]-7-[3-(1-pyrrolidinyl)propoxy]-4-quinazolinamin]
brain penetration in vivo [2]: modest brain penetration | social preference index (Soc vs. NS, phase 2) (WT mice): 53.4%±5.1% | selectivity for EHMT1/2 over other methyltransferases (EHMT1/2): > 2,000 fold | duration of therapeutic effect on social preference post-injection (Shank3+/ΔC mice [1]; Shank3+/ΔC mice, UNC0642 1 mg/kg, i.p., once daily for 3 days): ~15 days | social preference index (Soc vs. NS, phase 2) (Shank3+/ΔC mice [1]; Shank3+/ΔC mice, UNC0642 1 mg/kg, i.p., once daily for 3 days, saline control 22.5%±3.3%): 48.9%±2.3% | effect of repeated administration on social preference (Shank3+/ΔC mice [1]; Shank3+/ΔC mice, UNC0642, second round of treatment): still effective with the repeated administration | toxicity at higher dose and longer duration (Shank3+/ΔC mice [3]): lack of toxicity | blood chemistry and hematology: indicators for liver and kidney functions, lipid and protein metabolism (Shank3+/ΔC mice [4]): within normal ranges

CCCC(CCC)C(=O)O [valproic acid]
rescue of autism-like social deficits (social preference index) (Shank3+/ΔC mice [1]; Shank3+/ΔC mice, valproic acid 100 mg/kg, i.p., once daily for 3 days): fail to persistently rescue autism-like social deficits

CNCCC(Oc1ccc(C(F)(F)F)cc1)c1ccccc1 (stereo not drawn) [fluoxetine]
improvement of social preference (Shank3+/ΔC mice [1]; Shank3+/ΔC mice, fluoxetine 10 mg/kg, i.p. once daily for 2 weeks): failed to induce any improvement

COc1cc2c(cc1OCCCN1CCCC1)N=C(N)C21CCC1 [A-366]
selectivity over other methyltransferases and other non-epigenetic targets (EHMT2/EHMT1): > 100 fold | IC50 (EHMT2/EHMT1; peptide-competitive inhibitor, read-out: enzymatic IC50 EHMT2/EHMT1): ~3 nM

O=C1CCc2ccc(OCCCCN3CCN(c4cccc(Cl)c4Cl)CC3)cc2N1 [aripiprazole]
improvement on social preference (Shank3+/ΔC mice [1]; Shank3+/ΔC mice, aripiprazole 1 mg/kg): No improvement

Cc1nc2n(c(=O)c1CCN1CCC(c3noc4cc(F)ccc34)CC1)CCCC2 [risperidone]
improvement on social preference (Shank3+/ΔC mice [1]; Shank3+/ΔC mice, risperidone 0.1 mg/kg): No improvement

CC(/C=C/C(=O)NO)=C\[C@@H](C)C(=O)c1ccc(N(C)C)cc1 [Trichostatin A]
rescue of autism-like social deficits (social preference index) (Shank3+/ΔC mice [1]; Shank3+/ΔC mice, Trichostatin A 0.5 mg/kg, i.p., once daily for 3 days): fail to persistently rescue autism-like social deficits
